This passage reports Activity results from ChEMBL document CHEMBL4219083, “Reduction of Circulating Cancer Cells and Metastases in Breast-Cancer Models by a Potent EphA2-Agonistic Peptide-Drug Conjugate” (J Med Chem, 2018).

In data set [1] the test system is MDA-MB-231. Briefly: Antimetastatic activity against human MDA-MB-231 cells xenografted in NOD-scid mouse assessed as reduction in tumor burden at 24.5 mg/kg, iv administered thrice per week for 2 weeks. Type of data set: functional, organism-based. For orientation: Xenograft models place foreign cells or tissue in a host animal.
Data set [2] has as its system MDA-MB-231. The data set can be described thus: Antimetastatic activity against human MDA-MB-231 cells xenografted in NOD-scid mouse assessed as reduction in circulating tumor cells at 24.5 mg/kg, iv administered thrice per week for 2 weeks immunofluorescent staining-based assay. Type of data set: functional, organism-based.
A further data set relates to Mus musculus. Briefly: Toxicity in BALB/c mouse implanted with mouse 4T1 cells assessed as reduction in body weight at 24.5 mg/kg administered thrice per week for 2 weeks after 15 days post implantation. Type of data set: organism-based. To be noted: in vivo.
For data set [3], the system named is 4T1. The data set can be described thus: Antimetastatic activity against mouse 4T1 cells implanted in BALB/c mouse assessed as reduction in gross lung-metastasis count at 24.5 mg/kg administered thrice per week for 2 weeks after 15 days post implantation relative to control. It counts as functional. The arrangement: scale not given: the % may be the effect or the level left.

Data set [4] relates to 4T1. Briefly: Antimetastatic activity against mouse 4T1 cells implanted in BALB/c mouse assessed as reduction in microscopic lung nodules at 24.5 mg/kg administered thrice per week for 2 weeks after 15 days post implantation by H and E staining-based assay. Type of data set: functional, organism-based.
In data set [5] the test system is 4T1. The data set can be described thus: Antimetastatic activity against mouse 4T1 cells implanted in BALB/c mouse assessed as reduction in CD31-expressing vasculature at 24.5 mg/kg administered thrice per week for 2 weeks after 15 days post implantation by immunostaining-based assay. It counts as functional, organism-based.

Calls of active or inactive are those of the source. No cut-off for these calls is given here. Where only a bound is given, the exact number is not on record here.

In the case of `CCCC[C@H](NC(=O)[C@@H]1CCCN1C(=O)[C@@H](NC(=O)[C@H](CO)NC(=O)[C@H](CC(=O)O)NC(=O)[C@@H]1CCCN1C(=O)[C@H](Cc1ccc(O)cc1)NC(=O)[C@H](C)NC(=O)[C@H](CO)NC(=O)COc1ccc(F)c(Cl)c1)C(C)C)C(=O)N[C@@H](CCO)C(=O)N[C@@H](CO)C(=O)NCC(=O)NCCCC[C@H](NC(=O)CNC(=O)[C@H](CO)NC(=O)[C@H](CCO)NC(=O)[C@H](CCCC)NC(=O)[C@@H]1CCCN1C(=O)[C@@H](NC(=O)[C@H](CO)NC(=O)[C@H](CC(=O)O)NC(=O)[C@@H]1CCCN1C(=O)[C@H](Cc1ccc(O)cc1)NC(=O)[C@H](C)NC(=O)[C@H](CO)NC(=O)COc1ccc(F)c(Cl)c1)C(C)C)C(=O)NCC(=O)N[C@H](CCCCNC(=O)CCCc1cn(CCCCCC(=O)O[C@@H](C(=O)O[C@H]2C[C@@]3(O)[C@@H](OC(=O)c4ccccc4)[C@@H]4[C@]5(OC(C)=O)CO[C@@H]5C[C@H](O)[C@@]4(C)C(=O)[C@H](OC(C)=O)C(=C2C)C3(C)C)[C@@H](NC(=O)c2ccccc2)c2ccccc2)nn1)C(=O)NCC(=O)O`, the result in the data set on MDA-MB-231 [1], in the data set on MDA-MB-231 [2], in the data set on 4T1 [4] and with 4T1 [5] was Active. The Activity entry is listed as “Non-Toxic” with Mus musculus and over 75% with 4T1 [3].
